Experimental data taken from article PMC8625693, “Synthesis and Structure-Activity Relationships of New 2-Phenoxybenzamides with Antiplasmodial Activity” (Pharmaceuticals, 2021).
Like-named read-outs stand apart in the source and are kept apart here.

Columns and labels:
[1] = In vitro cytotoxicity with L-6 cells (Alamar Blue); format: cell-based, rat
Protocol: (§1) All newly synthesized compounds were tested for their antiplasmodial activity against the chloroquine-sensitive strain Plasmodium falciparum NF54. Cytotoxicity was determined using rat skeletal myofibroblasts (L-6 cells). As standards chloroquine and podophyllotoxin were used.
(§2) In vitro cytotoxicity was determined using a primary cell line of rat skeletal myofibroblasts. The assay was performed in 96-well microtiter plates, each well containing 0.1 mL of RPMI 1640 medium, supplemented with 0.1% L-glutamine (200 mM) and 10% fetal bovine serum, as well as 4000 L-6 cells. Serial drug dilutions of 11 3-fold dilution steps (covering a range from 100–0.002 µg/mL) were prepared. After 70 h of incubation time, the plates were inspected under an inverted microscope to ensure sterile conditions and growth of the controls. […] Podophyllotoxin (Sigma P4405) was used as control.

P. falciparum NF54 = test: In vitro microplate assay against P. falciparum NF54 (3H-hypoxanthine incorporation, erythrocytic stages); format: cell-based, Plasmodium falciparum
Protocol: as §1
In vitro activity against erythrocytic stages of P. falciparum was determined with a ^3H-hypoxanthine incorporation assay, using the chloroquine sensitive NF54 strain [44]. Chloroquine (Sigma C6628) was used as standard. Test compounds were dissolved in DMSO at 10 mg/mL and added to parasite cultures incubated in RPMI 1640 medium without hypoxanthine, supplemented with HEPES (5.94 g/L, NaHCO3 (2.1 g/L), neomycin (100 U/mL), Albumax (5 g/L) and washed human red blood cells A^+ at 2.5% hematocrit (0.3% parasitemia). Serial drug dilutions of 11 3-fold dilution steps (covering a range from 100–0.002 µg/mL) were prepared. The 96-well plates were incubated at a humidified atmosphere at 37 °C; 4% CO2, 3% O2, 93% N2. After 48 h, 0.05 mL of ^3H-hypoxanthine (=0.5 µCi) was added to each well. The plates were incubated for another 24 h under the same conditions. Then, the plates were harvested with a Betaplate cell harvester (Wallac, Zurich, Switzerland). The red blood cells were transferred onto glass fiber filter and washed with distilled water. The dried filters were inserted into a plastic foil with 10 mL of scintillation fluid and counted in a Betaplate liquid scintillation counter. IC50 values were determined from sigmoidal inhibition curves by linear regression using Microsoft Excel. Chloroquine was used as control.

CYP3A4 = molecular target: T1, CYP3A4 (Homo sapiens, UniProt P08684); test: Cytochrom P450 3A4 inhibition assay (P450-Glo, luciferin-IPA); format: in vitro ADME; conditions: recombinant human CYP3A4 Supersomes (+ oxidoreductase + b5), probe luciferin-IPA, stock solutions diluted to 20 µM, pH 7.4, triplicate
T1 construct: purchased Corning, Glendale, AZ, USA
Protocol: The CYP3A4 inhibition assay was performed using 96-well White Plates (Greiner Bio-One) at a pH of 7.4. […] Stock solutions were further diluted to a final concentration of 20 µM using water (HPLC grade). The luciferin IPA stock solution (3 mM) was diluted to a final concentration of 0.3 mM using water (HPLC grade). The CYP3A4 reaction mixture was prepared by mixing water (HPLC grade) with potassium phosphate buffer (1 M), luciferin IPA (0.3 mM) and CYP3A4 membrane (1 pmol/µL). The control reaction mixture was prepared using water (HPLC grade), potassium phosphate buffer (1 M), luciferin IPA (0.3 mM) and membrane without CYP activity (1 pmol/µL). Solutions A and B of the NADPH regeneration system were mixed and HPLC grade water was added. The reconstituted luciferin detection reagent was prepared by mixing the reconstituted buffer with esterase with the luciferin detection reagent. Then, solutions of test compounds and standard were added to the wells of the 96-well White Plate, each was tested in triplicate. The CYP3A4 reaction mixture was added to each well and the plate was incubated for 10 min at room temperature. After that, the NADPH regeneration system was added, inducing the reaction followed by an incubation time of 10 min at ambient temperature. By adding the reconstituted luciferin detection reagent, the reaction was terminated, and a luminescent signal was formed. Luminescence was measured by a SpectraMax M3 UV plate reader (Molecular Devices). The relative light units (RLU) were received from a calibration curve with beetle luciferin. […] The CYP3A4 inhibition (%) was calculated from the RLU.

[2] = Parallel artificial membrane permeability assay (PAMPA); conditions: pH 7.4
Protocol: The PAMPA was performed using a Corning Gentest Pre-coated PAMPA Plate System at a pH of 7.4. It consists of 96-well polystyrene plates, whereas the donor-plate (bottom plate) is a conventional 96-well microtiter plate. The base of the acceptor-plate (top plate) consists of a porous membrane. The pores are lined with a lipid-oil-lipid trilayer. Stock solutions (10 mM) of each test compound were prepared in DMSO or MeOH and then further diluted to a final concentration of 200 µM with phosphate-buffered saline (PBS) at a pH of 7.4. Compound solutions were then added to the wells of the donor plate and pure PBS was added to each well of the acceptor plate. Compounds and negative control (pure PBS) were tested in quadruplicates. Donor and acceptor plate were coupled and incubated at ambient temperature for 5 h. After that, the plates were separated and solutions from each well of both plates were transferred onto 96-well UV-Star Microplates (Greiner Bio-One). The UV-absorption was measured at different wavelengths (between 200 and 300 nm) by a SpectraMax M3 UV plate reader (Molecular Devices). The concentrations were received from a calibration curve for each substance. The plates were analyzed at a wavelength were the R^2 value of the calibration curve was higher than 0.99 [48]. […] (2) cequ=cDt* VD+cAt* VA/VD+VA where: • cD(t)—compound concentration in donor well at time t.
Recovery of compounds from donor and acceptor wells (mass retention) was calculated as shown in the equation below. Data were only accepted when recovery exceeded 70%. (3) R=1−cDt∗ VD+cAt∗ VA/c0∗ VD where: • R—mass retention (%); • cA(t)—compound concentration in acceptor well at time t; • cD(t)—compound concentration in donor well at time t; • c0—initial compound concentration in donor well; • VD—donor well volume; • VA—acceptor well volume.

L-6 cells = test: In vitro cytotoxicity with L-6 cells (Alamar Blue); format: cell-based, rat
Protocol: as §1, §2

[3] = rat skeletal myofibroblasts, average of four determinations, read-out: Cytotoxicity L-6 Cells IC50
[4] = Plasmodium falciparum, NF54, chloroquine-sensitive strain NF54, blood stages, average of four determinations, read-out: P.f. NF54 IC50
[5] = chloroquine-sensitive strain NF54, blood stages, average of four determinations, read-out: P.f. NF54 IC50
[6] = rat, Cytotoxicity L-6 Cells IC50

T1 sequence (P08684 2-503 limits assumed): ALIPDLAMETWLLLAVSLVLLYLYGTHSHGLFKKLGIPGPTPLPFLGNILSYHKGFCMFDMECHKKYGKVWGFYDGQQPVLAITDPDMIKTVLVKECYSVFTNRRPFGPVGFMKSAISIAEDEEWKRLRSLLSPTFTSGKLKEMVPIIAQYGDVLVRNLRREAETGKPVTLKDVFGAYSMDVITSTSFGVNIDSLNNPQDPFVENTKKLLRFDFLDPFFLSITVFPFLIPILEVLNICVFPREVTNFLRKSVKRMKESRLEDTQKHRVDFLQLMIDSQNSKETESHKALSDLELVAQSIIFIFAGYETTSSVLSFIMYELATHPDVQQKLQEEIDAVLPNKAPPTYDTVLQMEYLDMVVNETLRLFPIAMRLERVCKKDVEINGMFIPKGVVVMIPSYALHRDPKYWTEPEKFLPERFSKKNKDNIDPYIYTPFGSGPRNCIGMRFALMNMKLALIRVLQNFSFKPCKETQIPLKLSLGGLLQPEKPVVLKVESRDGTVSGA

Row | Compound | inhibition at 10 min, 20 µM (CYP3A4) [%] | Papp at 5 h, 200 µM [2] [×10⁻⁶ cm/s] | IC50 (P. falciparum NF54; [4]) [µM] | IC50 at 72 h [1, 6] [µM] | other results
1 | CCN(CC)CCCC(C)Nc1ccnc2cc(Cl)ccc12 (stereo not drawn) [CQ, chloroquine, reference compound] | – | – | – | – | IC50 at 72 h [1, 3]: 90.9 µM; IC50 (P. falciparum NF54; Plasmodium falciparum, NF54, read-out: P.f. NF54 IC50): 0.009 µM
2 | CC(C)(C)OC(=O)N1CCN(c2ccccc2NC(=O)c2cccc(C(F)(F)F)c2Oc2ccccc2)CC1 [Compound 6, tert-Butyl-4-{2-[2-phenoxy-3-(trifluoromethyl)benzamido]phenyl}piperazine-1-carboxylate] | 87 | 3 | 1.01 to 1.15 | – | IC50 at 72 h ([1]; rat, rat skeletal myofibroblasts, average of four determinations, read-out: Cytotoxicity L-6 Cells IC50): 128 µM; IC50 (P. falciparum NF54; [5]): 1.01 µM
3 | CC(C)(C)OC(=O)N1CCN(c2ccccc2NC(=O)c2cccc(C(F)(F)F)c2)CC1 [Compound 7, tert-Butyl-4-{2-[3-(trifluoromethyl)benzamido]phenyl}piperazine-1-carboxylate] | – | 0.08 | 3.74 | 113 | –
4 | CC(=O)Nc1ccc(Oc2c(C(=O)Nc3ccccc3N3CCN(C(=O)OC(C)(C)C)CC3)cccc2C(F)(F)F)cc1 [Compound 8, tert-Butyl-4-{2-[2-(4-acetamidophenoxy)-3-(trifluoromethyl)benzamido]phenyl}piperazine-1-carboxylate] | 99 | 4.06 | 1.01 to 1.15 | 73 | IC50 (P. falciparum NF54; [5]): 1.15 µM
5 | O=C(Nc1ccccc1)c1cccc(C(F)(F)F)c1Oc1ccc(F)cc1 [Compound 12, 2-(4-Fluorophenoxy)-N-phenyl-3-(trifluoromethyl)benzamide] | – | 10.1 | 9.33 to 21.3 | 129 to 202 | IC50 (L-6 cells; rat, 72 h): 202 µM; IC50 (P. falciparum NF54; [5]): 9.33 µM
6 | CC(C)(C)OC(=O)Nc1ccccc1NC(=O)c1cccc(C(F)(F)F)c1Oc1ccc(F)cc1 [Compound 13, tert-Butyl-N-{2-[2-(4-fluorophenoxy)-3-(trifluoromethyl)benzamido]phenyl}carbamate] | 90 | 8.72 | 1.9 | – | –
7 | Nc1ccccc1NC(=O)c1cccc(C(F)(F)F)c1Oc1ccc(F)cc1 [Compound 14, N-(2-Aminophenyl)-2-(4-fluorophenoxy)-3-(trifluoromethyl)benzamide] | – | 11.4 | – | 129 | –
8 | CN(C)C(=O)N1CCN(c2ccccc2NC(=O)c2cccc(C(F)(F)F)c2Oc2ccc(F)cc2)CC1 [Compound 22, N-{2-[4-(N,N-Dimethylcarbamoyl)piperazin-1-yl]phenyl}-2-(4-fluorophenoxy)-3-(trifluoromethyl)benzamide] | – | – | 2.3 | 20.2 | –
9 | Nc1cccc(NC(=O)c2cccc(C(F)(F)F)c2Oc2ccc(F)cc2)c1 [Compound 50, N-(3-Aminophenyl)-2-(4-fluorophenoxy)-3-(trifluoromethyl)benzamide] | – | 18.4 | 51.5 to 51.9 | 104 | IC50 (P. falciparum NF54; [5]): 51.5 µM
10 | Nc1ccc(NC(=O)c2cccc(C(F)(F)F)c2Oc2ccc(F)cc2)cc1 [Compound 51, N-(4-Aminophenyl)-2-(4-fluorophenoxy)-3-(trifluoromethyl)benzamide] | 88 | 12.9 | 51.5 to 51.9 | 130 | IC50 (P. falciparum NF54; [5]): 55.9 µM
11 | COc1cc([C@@H]2c3cc4c(cc3[C@H](O)[C@H]3COC(=O)[C@H]23)OCO4)cc(OC)c1OC [POD, podophyllotoxin, reference compound] | – | – | – | – | IC50 (L-6 cells; [3]): 0.012 µM
12 | Cn1c(=O)c2c(ncn2C)n(C)c1=O [caffeine, reference compound] | – | 8 | – | – | –

The next lines start with results.

Row | inhibition at 10 min, 20 µM (CYP3A4) [%] | Papp at 5 h, 200 µM [2] [×10⁻⁶ cm/s] | IC50 (P. falciparum NF54; [4]) [µM] | Compound | IC50 at 72 h [1, 6] [µM] | other results
13 | – | 10.1 | 2.53 | CC(=O)N1CCN(c2ccccc2NC(=O)c2cccc(C(F)(F)F)c2Oc2ccc(F)cc2)CC1 [Compound 17, N-[2-(4-Acetylpiperazin-1-yl)phenyl]-2-(4-fluorophenoxy)-3-(trifluoromethyl)benzamide] | 27.1 | –
14 | – | 7.44 | – | NC(=O)N1CCN(c2ccccc2NC(=O)c2cccc(C(F)(F)F)c2Oc2ccc(F)cc2)CC1 [Compound 21, N-[2-(4-Carbamoylpiperazin-1-yl)phenyl]-2-(4-fluorophenoxy)-3-(trifluoromethyl)benzamide] | 31.8 to 35.4 | IC50 (L-6 cells; rat, 72 h): 35.4 µM
15 | 96 | 6.17 | 3.3 | CC(C)(C)OC(=O)N1CCN(c2cccc(NC(=O)c3cccc(C(F)(F)F)c3Oc3ccc(F)cc3)c2)CC1 [Compound 36, tert-Butyl-4-{3-[2-(4-fluorophenoxy)-3-(trifluoromethyl)benzamido]phenyl}piperazine-1-carboxylate] | 124 | –
16 | 93 | 0.09 | 0.269 | CC(C)(C)OC(=O)N1CCN(c2ccc(NC(=O)c3cccc(C(F)(F)F)c3Oc3ccc(F)cc3)cc2)CC1 [Compound 37, tert-Butyl-4-{4-[2-(4-fluorophenoxy)-3-(trifluoromethyl)benzamido]phenyl}piperazine-1-carboxylate] | 124 | –
17 | – | 1.17 | 3.17 | CC(C)(C)C(=O)N1CCN(c2cccc(NC(=O)c3cccc(C(F)(F)F)c3Oc3ccc(F)cc3)c2)CC1 [Compound 38, N-{3-[4-(2,2-Dimethylpropanoyl)piperazin-1-yl]phenyl}-2-(4-fluorophenoxy)-3-(trifluoromethyl)benzamide] | 78 to 99.6 | IC50 (L-6 cells; rat, 72 h): 78 µM
18 | 60 | 11.2 | 4.66 | CC(C)(C)C(=O)N1CCN(c2ccc(NC(=O)c3cccc(C(F)(F)F)c3Oc3ccccc3)cc2)CC1 [Compound 55, N-{4-[4-(2,2-Dimethylpropanoyl)piperazin-1-yl]phenyl}-2-phenoxy-3-(trifluoromethyl)benzamide] | 89.8 | –
